Measurements: the SangsterLogP compilation

Columns and labels:
[1] = method code SF, from DOI: 10.1023/a:1016286026462, PMID: 8570535
[2] = not given; remark: listed apart in the source
[3] = method code SF-AS, from DOI: 10.1016/0304-4165(87)90236-4, PMID: 2889474
[4] = method code SF-AS, from DOI: 10.1016/s0020-1693(00)85781-3
[5] = method code SF-HPLC, from DOI: 10.1016/0378-5173(88)90064-6; settings: pH 7.4
[6] = not given; remark: listed apart in the source
[7] = method code SF-AS, from DOI: 10.1584/jpestics.8.69
[8] = not given; remark: listed apart in the source
[9] = not given; remark: listed apart in the source
[10] = method code …, from Wiggins, H.; Karcher, A.; Michael Wilson, J.; Robb, I. (2008). Determining Octanol/Water Partitioning Coefficients for Industrial Surfactants. Proc. 15th Annual International Petroleum & Biofuels …
[11] = method code SF-AS, from PMID: 7149911; settings: pH 8.9
[12] = method code SF-AS, from DOI: 10.1248/bpb1978.4.759, PMID: 7320829
[13] = method code SF-HPLC, from Peips, M.; Sikk, P.; Aaviksaar, A. (1986). Hydrophobic interaction in the active sites of serine proteases from thermoactinomycetes. Org. React., 23(3)261-271.; settings: pH 2.2
[14] = method code SF-AS, from Kishida, K.; Otori, T. (1980). A quantitative study on the relationship between transcorneal permeability of drugs and their hydrophobicity. Jpn J Ophthalmol, 24(3)251-259.; settings: pH 7.4
[15] = not given; remark: listed apart in the source
[16] = method code SF-AS, from DOI: 10.1016/0041-008x(67)90079-8

`CCCCOC(=O)c1ccccc1C(=O)OCCCC` gave a logP [1] of 4.39.
For `C=CCOc1ccccc1OCC(CNC(C)C)OC(=O)CCC` (stereo unspecified), the logP was 3.95.
Work on `Brc1cc2c(cc1Br)Oc1cc(Br)c(Br)cc1O2` yielded a logP [2] of 6.5.
Compound `COc1ccc(C(=O)c2ccccc2)c(O)c1` has a logP [1] of 3.82.
With `C[C@@H]1C[C@H]2OC(=O)[C@@H](C)[C@H]2[C@H](O)[C@]2(C)C(=O)C=C[C@@H]12` the logP [3] was 0.53.
For `CC(=O)c1ccc2c(c1)COCCOCCOCCOCCOCCOC2`, the logP [4] was -0.05.
For `CN(C)C(=O)COC(=O)c1ccccc1O`, the logD [5] was 1.21.
In the case of `COc1cc(C(C)(C)C)c(O)c(C(C)(C)C)c1`, the logP [1] is reported as 4.64.
Work on `CCC(=O)C(CC(C)N(C)C)(c1ccccc1)c1ccccc1` (stereo unspecified) yielded a logP [6] of 3.93.
With `CC1=C2[C@@H](C[C@@H](C)[C@@H]3C=CC(=O)[C@@]3(C)[C@H]2O)OC1=O` the logP [3] was 1.13.
Work on `COc1ccc(C(c2ccc(OC)cc2)C(C)[N+](=O)[O-])cc1` (stereo unspecified) yielded a logP [7] of 3.87.
For `c1ccc2c(c1)ccc1nc3c(ccc4ccccc43)cc12`, the logP [8] was 5.38.
In the case of `O=C(CCO[N+](=O)[O-])Oc1ccccc1C(=O)O`, the logP [9] is reported as 1.6.
In the case of `COc1ccc(C(C)c2ccc(OC)cc2)cc1`, the logP [7] is reported as 4.52.
Compound `CCCCCCCCOCCOCCOCCOCCOCCO` has a logP [10] of 2.43.
Compound `CN(N=O)C(=O)N(C)c1ccccc1` has a logD [11] of 1.58.
For `CCCCCCOCCOCCOCCOCCOCCO`, the logP [10] was 1.24.
Work on `CCN(CC)CCNC(=O)c1ccc(NS(C)(=O)=O)cc1` yielded a logP [6] of 1.36.
In the case of `O=C1NC(=O)C(c2ccccc2)(c2ccccc2)N1S(=O)(=O)c1ccccc1`, the logD ([12]; pH 7.0) is reported as 1.93.
Work on `CC(=O)c1ccc2cc(C(C)C(=O)OCC(=O)N(CCO)CCO)ccc2c1` (stereo unspecified) yielded a logD [5] of 1.7.
In the case of `C=CCOc1ccccc1OCC(CNC(C)C)OC(=O)C(C)C` (stereo unspecified), the logP is reported as 3.77.
`CCCCCCC(NC(C)=O)C(=O)OC` (stereo unspecified) gave a logD [13] of 1.7.
With `O=C(CCCCO[N+](=O)[O-])Oc1ccccc1C(=O)O` the logP [9] was 2.21.
In the case of `CCC1(c2ccccc2)C(=O)NC(=O)N1S(=O)(=O)c1ccccc1` (stereo unspecified), the logP [12] is reported as 2.44.
`CC(=O)c1ccc(N)cc1` showed a logD [14] of 0.83.
In the case of `Clc1cc2oc3c(Cl)cc(Cl)c(Cl)c3c2c(Cl)c1Cl`, the logP [2] is reported as 6.82.
Compound `CCN(N=O)C(=O)Nc1ccccc1` has a logD [11] of 2.25.
In the case of `C=CCOc1ccccc1OCC(CNC(C)C)OC(=O)CC` (stereo unspecified), the logP is reported as 3.76.
Work on `CC(C)N(N=O)C(=O)Nc1ccccc1` yielded a logD [11] of 2.5.
Work on `CC(C)c1ccc(C(=O)CC(=O)c2ccccc2)cc1` yielded a logP [1] of 6.51.
In the case of `COC(=O)[C@H](C)NC(C)=O`, the logD [13] is reported as -0.57.
`O=C1NC(=O)C(c2ccccc2)(c2ccccc2)N1S(=O)(=O)c1ccc(Cl)cc1` gave a logP [12] of 3.48.
`C=C1C(=O)O[C@@H]2C[C@@H](C)[C@@H]3C4CC(=O)[C@]3(C[C@H]12)[C@@]1(C4)C(=O)O[C@@H]2C[C@@H](C)[C@@H]3C=CC(=O)[C@@]3(C)[C@@H](O)[C@@H]21` gave a logP [3] of 1.66.
Work on `COc1ccc(CCN(C)CCCC2(c3ccc(OC)c(OC)c3)S(=O)(=O)CCCS2(=O)=O)cc1OC` yielded a logP [6] of 2.6.
`CN(N=O)C(=O)Nc1ccccc1` gave a logD [11] of 1.72.
`Nc1ccc(CCO)cc1` showed a logD [14] of 0.1.
Compound `CCCCCCCCOCCOCCOCCO` has a logP [10] of 2.84.
`CC(=O)c1ccc2cc(C(C)C(=O)OCC(=O)N(C)CC(N)=O)ccc2c1` (stereo unspecified) showed a logD [5] of 1.37.
For `CC(=O)c1ccc2cc(C(C)C(=O)OCC(N)=O)ccc2c1` (stereo unspecified), the logD [5] was 2.06.
Work on `Clc1cc2oc3cc(Cl)c(Cl)cc3c2cc1Cl` yielded a logP [2] of 5.83.
With `O=C(CCCCCCO[N+](=O)[O-])Oc1ccccc1C(=O)O` the logP [9] was 3.22.
In the case of `CN(N=O)C(=O)Oc1cccc2ccccc12`, the logD [11] is reported as 2.85.
`C=C1C(=O)O[C@@H]2C[C@@H](C)[C@@H]3C=CC(=O)[C@@]3(C)[C@@H](OC(=O)CCCC(=O)O[C@H]3[C@@H]4C(=C)C(=O)O[C@@H]4C[C@@H](C)[C@@H]4C=CC(=O)[C@]43C)[C@H]12` gave a logP [3] of 1.37.
For `Brc1cc2oc3ccc(Br)c(Br)c3c2cc1Br`, the logP [2] was 6.2.
With `COc1ccc(C(c2ccc(OC)cc2)C(F)(F)F)cc1` the logP [7] was 4.76.
With `Cn1c(=O)nc(-c2ccccc2)c2cc(F)ccc21` the logP [15] was 1.87.
Compound `O=C(CCCCC(CO[N+](=O)[O-])O[N+](=O)[O-])Oc1ccccc1C(=O)O` (stereo unspecified) has a logP [9] of 2.97.
In the case of `Cc1ccccc1S(=O)(=O)N1C(=O)NC(=O)C1(c1ccccc1)c1ccccc1`, the logP [12] is reported as 4.
Compound `Nc1ccc(Cc2ccc(N)cc2)cc1` has a logD [14] of 1.62.
With `C=CCOc1ccccc1OCC(CNC(C)C)OC(=O)c1ccc([N+](=O)[O-])cc1` (stereo unspecified) the logP was 5.22.
`CCCCCCCCCCCCOCCOCCOCCOCCOCCOCCOCCO` gave a logP [10] of 4.59.
For `CCCCCCCCCCOCCOCCOCCOCCOCCOCCOCCOCCO`, the logP [10] was 3.09.
With `Nc1ccc(CO)cc1` the logD [14] was -0.22.
Work on `Cn1c(=O)nc(-c2ccccc2)c2cc(Cl)ccc21` yielded a logP [15] of 2.38.
With `CCN(CC)C(=O)COC(=O)c1ccccc1O` the logD [5] was 1.99.
`CC(C)(CO[N+](=O)[O-])C(=O)Oc1ccccc1C(=O)O` showed a logP [9] of 2.32.
With `Brc1cc2oc3cc(Br)c(Br)cc3c2cc1Br` the logP [2] was 5.98.
Compound `CCN(CC)C(=O)COC(=O)C(C)c1ccc2cc(C(C)=O)ccc2c1` (stereo unspecified) has a logD [5] of 3.32.
In the case of `c1ccc2c(c1)ccc1nc3ccc4ccccc4c3cc12`, the logP [8] is reported as 5.31.
`O=C(CCCC(CO[N+](=O)[O-])O[N+](=O)[O-])Oc1ccccc1C(=O)O` (stereo unspecified) showed a logP [9] of 2.62.
For `C=CCOc1ccccc1OCC(CNC(C)C)OC(=O)C(C)(C)C` (stereo unspecified), the logP was 3.54.
For `Cc1ccccc1N1C(=O)c2cc(S(N)(=O)=O)c(Cl)cc2NC1C` (stereo unspecified), the logP [6] was 1.8.
`Clc1cc(Cl)nc(Cl)c1` showed a logP [16] of 2.68.
Compound `Brc1cc2oc3cc(Br)c(Br)c(Br)c3c2cc1Br` has a logP [2] of 7.2.
In the case of `COC(=O)[C@H](CC(C)C)NC(C)=O`, the logD [13] is reported as 0.84.
Compound `CCC(NC(C)=O)C(=O)OC` (stereo unspecified) has a logD [13] of -0.17.
For `ClC(Cl)(Cl)C(c1ccccc1)c1ccccc1`, the logP [7] was 4.87.
For `Cn1c(=O)nc(-c2ccccc2)c2ccc(Cl)cc21`, the logP [15] was 2.36.
Compound `CCOc1ccc(N)cc1` has a logD [14] of 1.24.
Work on `Cc1ccccc1OCC(O)CNCCOc1ccc(C(N)=O)cc1` (stereo unspecified) yielded a logP [6] of 2.19.
Work on `CCCCCCCCOC(=O)c1ccc(N(C)C)cc1` yielded a logP [1] of 5.75.
In the case of `Clc1cnc(Cl)c(Cl)c1`, the logP [16] is reported as 3.11.
Work on `Clc1ccc(Cl)c(Cl)n1` yielded a logP [16] of 2.77.
With `CN(N=O)C(=O)Nc1ccc(F)cc1` the logD [11] was 1.88.
With `c1ccc2c(c1)cnc1ccccc12` the logP [8] was 3.3.
Work on `c1cnc2c(c1)cc1ccc3cccc4ccc2c1c34` yielded a logP [8] of 5.35.
With `Brc1cc2oc3c(Br)c(Br)c(Br)cc3c2cc1Br` the logP [2] was 7.04.
Compound `CCc1ccc(N)cc1` has a logD [14] of 1.96.
Compound `Clc1cncc(Cl)c1` has a logP [16] of 2.56.
Compound `COc1ccc(C(C[N+](=O)[O-])c2ccc(OC)cc2)cc1` has a logP [7] of 3.57.
`COC(=O)[C@H](Cc1ccc(O)cc1)NC(C)=O` gave a logD [13] of 0.33.
`CC1(C)NC(=O)NC1=O` showed a logP [12] of -0.48.
`CCCCCCCCCCCCCCOCCOCCOCCOCCOCCOCCOCCOCCO` gave a logP [10] of 5.65.
`C=CCOc1ccccc1OCC(CNC(C)C)OC(C)=O` (stereo unspecified) showed a logP of 3.82.
Compound `Cn1c(=O)nc(-c2ccccc2)c2cc(S(C)(=O)=O)ccc21` has a logP [15] of 0.59.
In the case of `C=CCOc1ccccc1OCC(CNC(C)C)OC(=O)C1CC1` (stereo unspecified), the logP is reported as 3.01.
In the case of `COc1ccc(OC)c(N)c1`, the logD [14] is reported as 1.2.
With `Cc1ccc(C=C2C(=O)[C@]3(C)CCC2C3(C)C)cc1` the logP [1] was 5.13.
Work on `c1ccc2c(c1)Cc1cccnc1-2` yielded a logP [8] of 2.78.
For `COc1ccc2c(c1)c(-c1ccccc1)nc(=O)n2C`, the logP [15] was 1.91.
Work on `O=C1NC(=O)C(c2ccccc2)(c2ccc(O)cc2)N1` (stereo unspecified) yielded a logP [12] of 1.72.
Compound `c1ccc2nc3ccc4ccccc4c3cc2c1` has a logP [8] of 4.27.
Work on `CCCCC(NC(C)=O)C(=O)O` (stereo unspecified) yielded a logD [13] of 0.33.
For `CC(C)NCC(O)c1ccc(NS(C)(=O)=O)cc1` (stereo unspecified), the logP [6] was 0.53.
Work on `CC(C)(CCC(CO[N+](=O)[O-])O[N+](=O)[O-])C(=O)Oc1ccccc1C(=O)O` (stereo unspecified) yielded a logP [9] of 3.33.
`C=C1C(=O)O[C@@H]2C[C@@H](C)[C@@H]3C=CC(=O)[C@@]3(C)[C@@H](OC(=O)CC(=O)O[C@H]3[C@@H]4C(=C)C(=O)O[C@@H]4C[C@@H](C)[C@@H]4C=CC(=O)[C@]43C)[C@H]12` showed a logP [3] of 1.33.
`CC1CC2OC(=O)C3(C)C2C(OC3(C)O)C2(C)C(=O)C=CC12` (stereo unspecified) gave a logP [3] of 0.3.
`Clc1cccc(Cl)n1` showed a logP [16] of 2.15.
With `Cn1c(=O)nc(-c2ccccc2)c2cc(C(F)(F)F)ccc21` the logP [15] was 2.69.
`Clc1cccnc1Cl` showed a logP [16] of 2.11.
Compound `CCC(C(c1ccc(OC)cc1)c1ccc(OC)cc1)[N+](=O)[O-]` (stereo unspecified) has a logP [7] of 4.45.
